# Where two headings read alike, the source gives them in different places.
# Columns and labels:
# human plasma BChE = molecular target: T1, human plasma BChE (Homo sapiens, UniProt P06276); experiment: biochemical; format: biochemical
# T1 construct: was used as a source of BChE and was prepared from heparinized human blood; from tissue; host or cells: human plasma from heparinized human blood
# MAO-B = molecular target: T2, MAO-B (Homo sapiens, UniProt P27338); experiment: MAO-B inhibition assay; format: biochemical
# T2 construct: purchased Merck, Germany
# T2 sequence (P27338 1-520): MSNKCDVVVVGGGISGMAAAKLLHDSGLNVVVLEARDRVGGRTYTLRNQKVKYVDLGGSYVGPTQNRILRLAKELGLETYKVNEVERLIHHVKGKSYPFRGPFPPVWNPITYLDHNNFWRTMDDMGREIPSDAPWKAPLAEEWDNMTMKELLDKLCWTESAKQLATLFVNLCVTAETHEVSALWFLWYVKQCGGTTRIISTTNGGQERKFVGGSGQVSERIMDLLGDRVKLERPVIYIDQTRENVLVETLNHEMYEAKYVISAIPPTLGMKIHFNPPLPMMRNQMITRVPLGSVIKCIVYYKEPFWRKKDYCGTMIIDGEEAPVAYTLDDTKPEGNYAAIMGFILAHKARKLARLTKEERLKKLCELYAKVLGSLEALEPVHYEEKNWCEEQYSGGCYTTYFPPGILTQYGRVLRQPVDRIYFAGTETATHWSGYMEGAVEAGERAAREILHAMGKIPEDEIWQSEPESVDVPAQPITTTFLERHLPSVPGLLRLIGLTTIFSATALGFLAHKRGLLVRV
# Protocol: Since monoamine oxidase (MAO; EC 1.4.3.4) inhibitors are considered as neuroprotective agents, compound 6 was screened at two concentrations (1 and 10 µM) for its inhibition potential against both isoforms of human MAOs. […]; MAO inhibition assay was performed as previously described. Supplementary Materials provides details of this assay. […]
# The reaction mixture contains 2.5mg/mL MAO -A or 6.25mg/mLMAO-B enzyme (Merck, Germany) and inhibitor in final concentrations of […] in 50 mM potassiumphosphate buffer with 20% (v/v) glycerol (pH 7.5). […] The sample was then centrifuged (16.500 g) for10 min.The deamination product of kynuramine formed during the enzymatic reaction 4-hydroxyquinoline (4-HQ) was determined by UHPLC-MS on a Zorbax RRHD Eclipse plus C18 column (2.1 mm x 50 mm, […]) (Agilent Technologies, USA), by using a 6470 Series Triple Quadrupole mass spectrometer (Agilent Technologies, USA) as detector with electrospray ionisation – positive ion mode. […]
# 0.1% formic acid in water; (B) 0.1% formic acid in acetonitrile. IC 50of individual compounds were determined by nonlinear regression usingGraphPad Prism 8.0 (GraphPad Software, USA).
# Cytotoxicity, MTT assay = format: cell-based; settings: human, SH-SY5Y neuroblastoma cells, 24 h incubation
# Protocol: The cytotoxicity profile was assessed for compound 6 using the human neuroblastoma SH-SY5Y cell line and MTT assay. At a concentration of 10 µM, compound 6 was completely devoid of cytotoxicity, with viability reaching 95.1 ± 2.6%.
# The neuroblastoma cell line SH-SY5Y (Sigma-Aldrich, St. Louis, MO, USA) was used to evaluate cytotoxicity of the tested compounds. […]
# The MTT (3-(4,5-dimethylthiazol-2-yl)-2,5-diphenyl-tetraziolium bromide (Sigma–Aldrich) reduction assay was used for measurement of the compounds’ cytotoxicity, according to Mosmann. MTT is a water-soluble tetrazolium salt that is converted to purple formazan by succinate dehydrogenase in mitochondria of viable cells. Cell viability was detected after 24-h incubation with the tested substances. For the assay, SH-SY5Y cells were seeded into 96-well plates in 100 µL volume and at a density of 20 × 10^3. Cells were allowed to attach overnight before the treatment. The stock solutions of tested compounds were prepared in dimethylsulfoxide (DMSO, Sigma-Aldrich), which were serially diluted in DMEM and added to the cells in a 96-well culture plate. […] The optical density of each well was measured using a Spark® multimode microplate reader (Tecan Group Ltd., Männedorf, Switzerland) at 570 nm. The cell viability was expressed as a percentage of the untreated control. […]
# [1] = molecular target: POP (prolyloligopeptidase) (Homo sapiens, UniProt P48147); experiment: POP inhibition assay; format: biochemical; settings: bounds marked f: highest tested concentration due to low solubility in buffer; read-out: IC50, POP ± SEM
# Protocol: The previously applied procedure was used. Detailed description of the assay can be found in Supplementary Materials.
# POP (EC 3.4.21.26) was dissolved in phosphate-buffered saline (PBS; 0.01 M Na/K phosphate buffer, […]
# The assay was performed in standard polystyrene 96-well microplates with a flat and clear bottom.
# Stock solutions of tested compounds were prepared in DMSO (10 mM). Dilutions (10−3 to 10−7 M) were prepared from the stock solution with deionized H2O; the control was performed with the same DMSO concentration. POP substrate, (Z)-Gly-Pro-p-nitroanilide, was dissolved in 50% 1,4-dioxane (5 mM). For each reaction, PBS (170 μL), tested compound (5 μL), and POP (5 μL) were incubated for 5 min at 37 °C. Then, substrate (20 μL) was added, and the microplate was incubated for 30 min at 37 °C. The formation of p-nitroanilide, directly proportional to the POP activity, was measured […]
# Synergy 2, BioTek Instruments, Winooski, VT). The inhibition potency of tested compounds was calculated by nonlinear regression analysis and was expressed as an IC50 value (concentration of inhibitor which causes 50% POP inhibition). […]
# T1 sequence (P06276 29-602): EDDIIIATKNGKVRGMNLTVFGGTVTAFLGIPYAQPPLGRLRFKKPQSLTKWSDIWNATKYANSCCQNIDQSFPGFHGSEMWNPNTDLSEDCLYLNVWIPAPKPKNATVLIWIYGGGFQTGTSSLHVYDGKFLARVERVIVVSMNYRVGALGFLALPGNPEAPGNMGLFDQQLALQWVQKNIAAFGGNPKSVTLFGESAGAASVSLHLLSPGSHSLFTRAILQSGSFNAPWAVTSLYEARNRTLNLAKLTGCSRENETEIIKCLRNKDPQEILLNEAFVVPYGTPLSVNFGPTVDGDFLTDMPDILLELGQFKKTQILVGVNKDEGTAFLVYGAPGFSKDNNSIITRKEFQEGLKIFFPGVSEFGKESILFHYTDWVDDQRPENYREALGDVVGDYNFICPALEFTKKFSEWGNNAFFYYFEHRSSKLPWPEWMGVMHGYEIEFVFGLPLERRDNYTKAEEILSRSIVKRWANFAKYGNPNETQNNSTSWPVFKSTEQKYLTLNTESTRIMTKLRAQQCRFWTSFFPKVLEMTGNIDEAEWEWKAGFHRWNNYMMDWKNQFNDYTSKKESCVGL
# Sequence of POP (prolyloligopeptidase) (P48147 whole entry): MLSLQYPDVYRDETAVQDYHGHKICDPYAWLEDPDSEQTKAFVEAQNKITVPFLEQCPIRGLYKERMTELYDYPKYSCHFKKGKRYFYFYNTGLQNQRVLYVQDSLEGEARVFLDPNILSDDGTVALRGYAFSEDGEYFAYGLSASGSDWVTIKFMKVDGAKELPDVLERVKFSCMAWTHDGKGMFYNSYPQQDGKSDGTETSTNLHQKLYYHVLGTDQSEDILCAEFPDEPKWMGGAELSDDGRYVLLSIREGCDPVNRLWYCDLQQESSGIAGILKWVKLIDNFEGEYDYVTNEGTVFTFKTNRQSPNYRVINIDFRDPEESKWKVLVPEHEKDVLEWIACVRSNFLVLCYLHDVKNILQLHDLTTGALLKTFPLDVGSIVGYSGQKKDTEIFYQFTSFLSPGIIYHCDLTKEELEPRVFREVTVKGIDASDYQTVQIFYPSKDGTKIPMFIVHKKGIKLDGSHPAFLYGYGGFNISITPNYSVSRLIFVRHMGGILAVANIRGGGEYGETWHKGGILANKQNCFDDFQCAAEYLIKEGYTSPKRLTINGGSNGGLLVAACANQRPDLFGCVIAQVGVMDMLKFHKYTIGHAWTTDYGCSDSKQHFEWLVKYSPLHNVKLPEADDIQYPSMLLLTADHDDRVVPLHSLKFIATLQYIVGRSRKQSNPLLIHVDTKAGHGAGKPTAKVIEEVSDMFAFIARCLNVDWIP
structure (smiles),measurement,setting,value
"C=CCOc1ccc(CCN(CC=C)Cc2ccc(OC)c(OCc3ccccc3)c2)cc1 [Compound 6, N-allyl-N-(3-benzyloxy-4-methoxybenzyl)-2-(4-allyloxyphenyl)ethan-1-amine]",IC50,"human plasma BChE; mean ± SEM of three independent measurements, each in triplicate, read-out: IC50, hBuChE ± SEM",70 ± 10 nM
same,IC50,"human plasma BChE; read-out: IC50, hBuChE",72 nM
same,inhibition at 100 µM,"human plasma BChE; tested at 100 µM compound concentration, read-out: % Inhibition hBuChE ± SEM",98.6 ± 0.9%
same,IC50,MAO-B,> 10000 nM
same,residual activity of MAO-B,MAO-B; 1 and 10 µM,higher than 68%
same,"viability at 24 h, 10 µM","Cytotoxicity, MTT assay",95.1 ± 2.6%
same,IC50,[1],> 79000 nM
